In patent US9364459B2, “3-(indolyl)- or 3-(azaindolyl)- 4-arylmaleimide derivatives for use in the treatment of colon and gastric adenocarcinoma” (Johannes Gutenberg-Universität Mainz, priority 2009, dated 2016):

Experiments:
[1] = tested on: SW480; test: Nicoletti apoptosis assay in SW480 cells; format: cell-based, human
Method: (§1) Nicoletti Apoptosis Assay by Cell Cycle Analysis
(§2) Cancer cells were transferred to 12-well flat-bottomed plates. […] Subsequently, cells were incubated in 1 ml medium containing various concentrations of test compounds at 37° C. with 5% CO2. After incubation the cells were washed with PBS, trypsinized, pelleted and mixed with PI buffer (containing 0.1% sodium citrate, 0.1% triton X-100, […] propidium iodide (PI)) and incubated for 1 hour at 4° C. Cell cycle sub-G1 fraction analysis was performed as described previously (Nicoletti, I. et al. (1991) J. Immunol. Methods 139, 271-279) using a flow cytometer (BD FACS Calibur™, BD Biosciences, Heidelberg, Germany). Each experiment was done in triplicate.

[2] = tested on: chick embryo microvessel formation; test: Quantitative chick embryo in vivo assay of antiangiogenic activity; conditions: Gallus gallus; 26 nM drug concentration/pellet; 24 hours incubation; read-out: Inhibition of microvessel area
Method: Evaluation of Antiangiogenic Activity in a Quantitative Chick Embryo In Vivo Assay
The inhibition of angiogenesis (new blood vessel formation) was measured as described in WO2006/061212.

[3] = tested on: HCT-116; test: Nicoletti apoptosis assay in HCT-116 cells; format: cell-based, human
Method: as §1, §2

[4] = biological target: GSK-3β (Homo sapiens (Human), UniProt P49841); test: GSK-3β kinase inhibition assay (Millipore IC50Profiler); format: biochemical
GSK-3β, sequence (P49841 whole entry): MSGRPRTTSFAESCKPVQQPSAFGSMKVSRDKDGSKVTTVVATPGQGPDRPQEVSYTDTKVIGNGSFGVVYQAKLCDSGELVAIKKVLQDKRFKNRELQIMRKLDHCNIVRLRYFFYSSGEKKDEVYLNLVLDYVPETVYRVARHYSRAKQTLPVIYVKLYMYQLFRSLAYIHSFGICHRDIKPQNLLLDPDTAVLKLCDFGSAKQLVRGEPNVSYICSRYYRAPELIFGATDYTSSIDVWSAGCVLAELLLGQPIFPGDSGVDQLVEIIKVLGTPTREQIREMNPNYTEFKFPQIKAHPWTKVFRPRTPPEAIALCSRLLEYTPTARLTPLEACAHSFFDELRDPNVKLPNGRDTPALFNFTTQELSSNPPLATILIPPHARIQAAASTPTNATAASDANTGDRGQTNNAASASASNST
From the text: (§3) GSK-3β, VEGFR-2, FLT-3 Kinase Inhibition Assays
(§4) Detailed protocols can be found at: www.millipore.com/drugdiscovery/dd3/assayprotocols.

[5] = tested on: Caco-2; test: Nicoletti apoptosis assay in Caco-2 cells; format: cell-based, human
Method: as §1, §2

[6] = biological target: FLT-3 (Homo sapiens (Human), UniProt P36888); test: FLT-3 kinase inhibition assay (Millipore IC50Profiler); format: biochemical
FLT-3, sequence (P36888 27-993): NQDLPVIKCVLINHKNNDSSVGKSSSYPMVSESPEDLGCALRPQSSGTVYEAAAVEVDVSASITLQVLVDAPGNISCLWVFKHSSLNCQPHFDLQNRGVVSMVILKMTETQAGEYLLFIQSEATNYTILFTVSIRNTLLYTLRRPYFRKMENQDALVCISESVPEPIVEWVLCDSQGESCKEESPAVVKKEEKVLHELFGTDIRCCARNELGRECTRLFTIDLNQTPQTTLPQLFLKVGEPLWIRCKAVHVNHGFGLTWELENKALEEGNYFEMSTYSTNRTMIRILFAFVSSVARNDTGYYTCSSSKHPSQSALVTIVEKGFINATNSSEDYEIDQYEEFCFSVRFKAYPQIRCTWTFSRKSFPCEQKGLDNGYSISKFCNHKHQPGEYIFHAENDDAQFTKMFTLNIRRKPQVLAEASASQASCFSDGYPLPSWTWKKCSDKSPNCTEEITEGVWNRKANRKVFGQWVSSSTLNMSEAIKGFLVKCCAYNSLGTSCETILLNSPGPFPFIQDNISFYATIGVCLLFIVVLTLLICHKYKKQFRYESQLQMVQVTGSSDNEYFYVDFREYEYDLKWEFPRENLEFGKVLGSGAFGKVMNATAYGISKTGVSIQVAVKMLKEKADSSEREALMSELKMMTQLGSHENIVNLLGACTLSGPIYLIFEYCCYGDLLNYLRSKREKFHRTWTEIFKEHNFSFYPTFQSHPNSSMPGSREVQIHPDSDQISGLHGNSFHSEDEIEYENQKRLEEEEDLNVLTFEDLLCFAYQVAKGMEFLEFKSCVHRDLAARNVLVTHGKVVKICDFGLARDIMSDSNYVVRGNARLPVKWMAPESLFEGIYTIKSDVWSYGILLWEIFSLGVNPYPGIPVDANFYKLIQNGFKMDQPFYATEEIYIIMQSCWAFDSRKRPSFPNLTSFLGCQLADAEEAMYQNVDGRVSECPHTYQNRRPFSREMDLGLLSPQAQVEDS
Method: as §3
The effect of test compounds on the activity of the protein kinases GSK-3β, VEGFR-2 and FLT-3 was evaluated based on half maximal inhibitory concentration (IC50) values determined by Millipore UK Ltd; Gemini Crescent; Dundee Technology Park; Dundee DD2 1SW; UK (IC50Profiler). Detailed protocols can be found at: www.millipore.com/drugdiscovery/dd3/assayprotocols.

[7] = tested on: HUVEC; test: Nicoletti apoptosis assay (sub-G1 fraction) in HUVEC; format: cell-based, human; conditions: 4 days, untreated 15.4 ± 1.5%
Method: as §1, §2
The same analysis was performed with HUVEC cells. 1.5×10^4 cells were plated into each well and treated with test compounds for 4 days.
Human Umbilical Vein Endothelial Cells (HUVEC) known for mitogenic specifity for VEGF were obtained from the Department of Pathology, University Hospital of Mainz, Germany. The cells were cultured in M199 supplemented with 20% FCS, 1% Pen/Strep, 0.34% GlutaMAX-I, 25 μg/ml Endothelial Cell Growth Supplement (BD Biosciences), 25 μg/ml Heparin sodium (179 USP units/mg; Sigma, Germany) and were maintained at 37° C. and 5% CO2.

[8] = tested on: HT-29 human colon adenocarcinoma cells; test: MTT viability assay in HT-29 cells; conditions: HT-29, 72 h, read-out: Viability of HT-29 cells as determined by MTT assay
Method: Evaluation of Effect on Viability (MTT Assay)
The antiproliferative activity of test compounds was determined by the 3-(4,5-dimethylthiazol-2-yl)-2,5-diphenyltetrazolium bromide (MTT) assay as described previously (Mosmann, T. et al. (1983) J. Immunol. Methods 65, 55-63). Cells in the exponential growth phase were transferred to 96-well flat-bottom plates. 10,000 viable cells contained in 200 μl cell suspension were plated into each well and incubated over night. Cells were then exposed to various concentrations of test compounds (100 μl/well) for 3 days at 37° C. with 5% CO2. Subsequently, 10 μl/well MTT stock solution (5 mg/ml; Biomol, Germany) was added and the cells were incubated at 37° C. with 5% CO2 for 4 hours. 100 μl solubilization solution (10% SDS in 0.01 M HCl) was added and the cells were incubated at 37° C. with 5% CO2 over night. Plates were read on an ELISA-Reader ELX 800 (BIO-TEK Software KC 4) at 562 nm absorbance. Each experiment was done in triplicate.
HCT-116, HT-29 and SW480 cells were cultured in RPMI1640 supplemented with 10% FCS. […] All cells were maintained at 37° C. and 5% CO2.

[9] = tested on: HT-29; test: Nicoletti apoptosis assay in HT-29 cells; format: cell-based, human; conditions: for Activity in combination with irinotecan relative to compound A, in words: HT-29 cells
Method: as §1, §2

[10] = biological target: VEGFR-2 (Homo sapiens (Human), UniProt P35968); test: VEGFR-2 kinase inhibition assay (Millipore IC50Profiler); format: biochemical
VEGFR-2, sequence (P35968 20-1356): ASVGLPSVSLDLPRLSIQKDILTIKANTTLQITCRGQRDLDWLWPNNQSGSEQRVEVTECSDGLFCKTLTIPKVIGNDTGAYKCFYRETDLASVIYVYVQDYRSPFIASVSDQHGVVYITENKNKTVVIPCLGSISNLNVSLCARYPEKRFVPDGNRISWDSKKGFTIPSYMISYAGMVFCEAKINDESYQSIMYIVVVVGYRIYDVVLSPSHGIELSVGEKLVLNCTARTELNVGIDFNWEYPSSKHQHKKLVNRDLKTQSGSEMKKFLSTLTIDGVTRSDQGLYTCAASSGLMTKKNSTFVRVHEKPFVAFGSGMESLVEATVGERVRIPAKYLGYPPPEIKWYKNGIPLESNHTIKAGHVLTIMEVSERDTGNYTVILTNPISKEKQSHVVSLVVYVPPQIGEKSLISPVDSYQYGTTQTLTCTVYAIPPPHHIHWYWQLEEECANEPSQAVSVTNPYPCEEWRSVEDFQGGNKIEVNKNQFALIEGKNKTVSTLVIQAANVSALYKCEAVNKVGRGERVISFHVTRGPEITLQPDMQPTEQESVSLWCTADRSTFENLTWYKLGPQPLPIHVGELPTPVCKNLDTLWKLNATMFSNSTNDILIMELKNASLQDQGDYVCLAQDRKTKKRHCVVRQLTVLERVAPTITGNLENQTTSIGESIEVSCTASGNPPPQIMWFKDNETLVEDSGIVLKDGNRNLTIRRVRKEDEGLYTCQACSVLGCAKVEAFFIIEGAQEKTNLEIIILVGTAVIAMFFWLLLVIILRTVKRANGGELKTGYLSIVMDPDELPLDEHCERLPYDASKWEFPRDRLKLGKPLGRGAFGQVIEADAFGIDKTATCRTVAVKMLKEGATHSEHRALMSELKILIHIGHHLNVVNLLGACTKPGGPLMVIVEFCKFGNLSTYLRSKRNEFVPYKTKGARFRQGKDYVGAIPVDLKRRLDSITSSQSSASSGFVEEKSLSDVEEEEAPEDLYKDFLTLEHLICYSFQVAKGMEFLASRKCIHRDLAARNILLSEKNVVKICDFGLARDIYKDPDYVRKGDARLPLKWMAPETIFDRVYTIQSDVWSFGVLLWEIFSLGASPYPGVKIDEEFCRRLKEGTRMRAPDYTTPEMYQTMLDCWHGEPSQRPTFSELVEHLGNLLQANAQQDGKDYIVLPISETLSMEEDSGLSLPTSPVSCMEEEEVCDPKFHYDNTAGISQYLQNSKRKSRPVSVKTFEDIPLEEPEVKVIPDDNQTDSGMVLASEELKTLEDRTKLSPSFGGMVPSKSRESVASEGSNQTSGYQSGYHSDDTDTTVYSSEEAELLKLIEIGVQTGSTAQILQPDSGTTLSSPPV
From the text: as §3, §4

[11] = tested on: MKN-45; test: Nicoletti apoptosis assay in MKN-45 cells; format: cell-based, human
Method: as §1, §2

[12] = Table 6, 7.9 μM comp. A plus 1.18 μM irinotecan
[13] = Table 6, 7.9 μM compound A alone
[14] = Table 7, 7.9 μM compound A alone
[15] = Table 7, 7.9 μM compound A plus 20 nM topotecan
[16] = Table 8, HT-29, 7.9 μM test compound alone, drug-free control 3.4 ± 0.9%
[17] = Table 8, HT-29, 7.9 μM test compound plus 1.18 μM irinotecan
[18] = Table 6, 1.18 μM irinotecan alone

## COc1cc(C2=C(c3c[nH]c4ccccc34)C(=O)NC2=O)cc(OC)c1OC [A, 3-(1H-indol-3-yl)-4-(3,4,5-trimethoxyphenyl)-maleinimid]
[1]
  Combined effect of compound A and low dosed irinotecan on apoptosis, in words: Significant synergistic effects
[1]; [12]
  Sub-G1 Fraction: 32.21 ± 0.40%
[1]; [13]
  Sub-G1 Fraction: 9.96 ± 2.3%
[1]; [14]
  Sub-G1 Fraction: 10 ± 2.3%
[1]; [15]
  Sub-G1 Fraction: 38.81 ± 0.88%
[2]
  inhibition at 0.026 µM: 82%
[3]
  Combined effect of compound A and low dosed irinotecan on apoptosis, in words: Significant synergistic effects
[3]; [12]
  Sub-G1 Fraction: 27.90 ± 3.4%
[3]; [13]
  Sub-G1 Fraction: 3.70 ± 2.8%
[4]
  IC50: 1100 nM
[5]
  Combined effect of compound A and low dosed irinotecan on apoptosis, in words: Significant synergistic effects
[5]; [12]
  Sub-G1 Fraction: 43.70 ± 2.2%
[5]; [13]
  Sub-G1 Fraction: 6.00 ± 2.3%
[5]; [14]
  Sub-G1 Fraction: 5.9 ± 0.6%
[5]; [15]
  Sub-G1 Fraction: 52.07 ± 2.84%
[6]
  IC50: 166 nM
[6]; Table 2
  FLT-3 inhibition, in words: most significantly inhibited
[7]; 0.79 μM
  Sub-G1 Fraction: 25. ± 0.9%
[7]; 2.6 μM
  Sub-G1 Fraction: 87.7 ± 2.3%
[7]; 7.9 μM
  Sub-G1 Fraction: 88.9 ± 4.0%
[8]
  viability at 2.6 µM: 78.5 ± 3.7%
  viability at 7.9 µM: 62.9 ± 1.5%
  viability at 26 µM: 53.9 ± 4.8%
  viability at 52 µM: 42.8 ± 1.6%
[9]; HT-29
  Combined effect of compound A and low dosed irinotecan on apoptosis, in words: Significant synergistic effects
  Combined effect of compound A and topotecan on apoptosis, in words: synergistically inhibited apoptosis
[9]; HT-29, 7 days combination treatment with irinotecan
  Induction of apoptosis in combination with irinotecan compared with vandetanib or sunitinib, in words: greater induction of apoptosis
[9]; Table 6, HT-29, 7.9 μM comp. A plus 1.18 μM irinotecan
  Sub-G1 Fraction: 57.40 ± 1.6%
[9]; Table 6, HT-29, 7.9 μM compound A alone
  Sub-G1 Fraction: 5.90 ± 0.6%
[9]; Table 7, HT-29, 7.9 μM compound A alone
  Sub-G1 Fraction: 5.9 ± 0.6%
[9]; Table 7, HT-29, 7.9 μM compound A plus 20 nM topotecan
  Sub-G1 Fraction: 65.6 ± 1.8%
[9]; [16]
  Sub-G1 Fraction: 4.70 ± 0.50%
[9]; [17]
  Sub-G1 Fraction: 53.10 ± 3.30%
[9]; Table 9, HT-29, 7.9 μM compound A plus 1.18 μM Irinotecan, 7 days
  Sub-G1 Fraction: 49.8 ± 1.30%
[9]; Table 9, HT-29, single-agent treatment, 7.9 μM compound A, 7 days
  Sub-G1 Fraction: 8.9 ± 0.8%
[10]
  IC50: 90 nM
[10]; Table 2
  VEGFR-2 IC50 values, in words: low nanomolar range
[11]; [12]
  Sub-G1 Fraction: 51.44 ± 0.2%
[11]; [13]
  Sub-G1 Fraction: 20.16 ± 1.6%
[11]; [14]
  Sub-G1 Fraction: 20.2 ± 1.6%
[11]; [15]
  Sub-G1 Fraction: 61.1 ± 1.2%

## CC[C@@]1(O)C(=O)OCc2c1cc1n(c2=O)Cc2cc3c(CN(C)C)c(O)ccc3nc2-1 [topotecan, reference compound]
[1]; Table 7, 20 nM topotecan alone
  Sub-G1 Fraction: 13.34 ± 0.3%
[5]; Table 7, 20 nM topotecan alone
  Sub-G1 Fraction: 31.5 ± 0.08%
[9]; Table 7, HT-29, 20 nM topotecan alone
  Sub-G1 Fraction: 7.9 ± 0.8%
[11]; Table 7, 20 nM topotecan alone
  Sub-G1 Fraction: 26.15 ± 0.49%

## COc1cc(C2=C(c3c[nH]c4ccc(Br)cc34)C(=O)NC2=O)cc(OC)c1OC [P, 3-(5-Bromo-1H-indol-3-yl)-4-(3,4,5-trimethoxyphenyl)-maleinimide]
[2]
  inhibition at 0.026 µM: 35%
[7]; 0.79 μM
  Sub-G1 Fraction: 24.0 ± 1.9%
[7]; 2.6 μM
  Sub-G1 Fraction: 31.6 ± 2.0%
[7]; 7.9 μM
  Sub-G1 Fraction: 54.4 ± 3.2%
[8]
  viability at 2.6 µM: 37.83 ± 0.19%
  viability at 7.9 µM: 20.6 ± 0.35%
  viability at 26 µM: 7.07 ± 1.37%
  viability at 52 µM: 8.68 ± 0.37%
[9]
  Activity in combination with irinotecan relative to compound A, in words: at least comparable with compound A
[9]; [16]
  Sub-G1 Fraction: 1.81 ± 0.36%
[9]; [17]
  Sub-G1 Fraction: 55.00 ± 0.33%
other
  melting point: 259 to 262 °C

## CCc1c2c(nc3ccc(OC(=O)N4CCC(N5CCCCC5)CC4)cc13)-c1cc3c(c(=O)n1C2)COC(=O)[C@]3(O)CC [irinotecan, reference compound]
[1]; [18]
  Sub-G1 Fraction: 9.61 ± 0.91%
[3]; [18]
  Sub-G1 Fraction: 9.86 ± 2.4%
[5]; [18]
  Sub-G1 Fraction: 18.80 ± 0.8%
[9]; Table 6, HT-29, 1.18 μM irinotecan alone
  Sub-G1 Fraction: 17.40 ± 0.98%
[9]; Table 8, HT-29
  Induction of apoptosis under irinotecan single application (Sub-G1 Fraction): Induction of apoptosis under irinotecan single application 18.3 ± 1.1%
[9]; Table 9, HT-29
  Induction of apoptosis under irinotecan single application (Sub-G1 Fraction): Induction of apoptosis under irinotecan single application 17.4 ± 0.6%
[11]; [18]
  Sub-G1 Fraction: 28.97 ± 1.15%

## COc1cc(C2=C(c3c[nH]c4ccc(F)cc34)C(=O)NC2=O)cc(OC)c1OC [O, 3-(5-Fluoro-1H-indol-3-yl)-4-(3,4,5-trimethoxyphenyl)-maleinimide]
[2]
  inhibition at 0.026 µM: 63%
[7]; 0.79 μM
  Sub-G1 Fraction: 16.0 ± 1.2%
[7]; 2.6 μM
  Sub-G1 Fraction: 73.3 ± 3.2%
[7]; 7.9 μM
  Sub-G1 Fraction: 90.6 ± 5.4%
[8]
  viability at 2.6 µM: 47.83 ± 0.34%
  viability at 7.9 µM: 35.5 ± 0.71%
  viability at 26 µM: 42.1 ± 0.58%
  viability at 52 µM: 17.6 ± 1.81%
[9]
  Activity in combination with irinotecan relative to compound A, in words: at least comparable with compound A
[9]; [16]
  Sub-G1 Fraction: 3.26 ± 2.14%
[9]; [17]
  Sub-G1 Fraction: 49.69 ± 2.96%
other
  melting point: 232 to 233 °C
[10]
  IC50: 182 nM
